For orientation: pest or weed control means how far the test organism was held down. A higher pest or weed control goes with a strong effect. What is called mortality is the share of the test organisms that died.

Assay [1] concerns cotton aphid (Aphis gossypii). The assay is described as follows: Test Example 1: foliar spray on cucumber seedlings infested with cotton aphid, controlling value. In kind it is in vivo. The following applies: 120 h, spray 10 mL/seedling on cucumber, 5 days after spraying, 25° C. An excerpt:
Controlling value (%)={1−(Cb×Tai)/(Cai×Tb)}×100 wherein the symbols in the formula represent the following meanings. Cb: Number of the test insects in untreated group; Cai: Number of the surviving insects at the time of the investigation in untreated group; Tb: Number of the test insects in treated group; Tai: Number of the surviving insects at the time of the investigation in treated group; Here the “untreated group” represents a group where a similar treatment procedure to that of the treated group except not using each test compound is done.

Assay [2] deals with housefly (Musca domestica). Briefly: whole plant or invertebrate. It is filed as in vivo. The following applies: 24 h, read-out: mortality of insects. The method, then:
A bottom of a plastic cup having a diameter of 5.5 cm is lined with the same size of a filter paper, and each of the diluted solutions (0.7 mL) is added dropwise on the filter paper, and sucrose (30 mg) is homogeneously placed into the plastic cup as a bait.

SMILES strings stand for the structures. Where only a bound is given, the exact number is not on record here.

Molecule `CCS(=O)(=O)c1cc(N)ccc1-c1ccc(OCC(F)(F)C(F)(F)F)cn1` [Present compound 53] registered a pest or weed control at 500 ppm in assay [1] of at least 90%.
In assay [1], `CCSc1cc(C#N)ccc1-c1ccc(OCC(F)(F)C(F)(F)F)cn1` [Present compound 59] had a pest or weed control at 200 ppm of at least 90% and a pest or weed control at 500 ppm of at least 90%.
In assay [1], `CCS(=O)(=O)c1cc(C#N)ccc1-c1ccc(OCC(F)(F)C(F)(F)F)cn1` [Present compound 60] displayed a pest or weed control at 200 ppm of at least 90% and a pest or weed control at 500 ppm of at least 90%.
For `CCS(=O)(=O)c1cc(C(=O)O)ccc1-c1ccc(OCC(F)(F)C(F)(F)F)cn1` [Present compound 61], in assay [1], the pest or weed control at 200 ppm is at least 90% and the pest or weed control at 500 ppm is at least 90%.
In assay [1], `CCS(=O)(=O)c1ccc(N)cc1-c1ccc(OCC(F)(F)C(F)(F)F)cn1` [Present compound 62] came in with a pest or weed control at 200 ppm of at least 90% and a pest or weed control at 500 ppm of at least 90%.
Consider `CCS(=O)(=O)c1cc(NC(=O)C2CC2)ccc1-c1ccc(OCC(F)(F)C(F)(F)F)cn1` [Present compound 63], for which, in assay [1], the pest or weed control at 500 ppm was at least 90%.
Take `CCS(=O)(=O)c1cc(-n2cncn2)ccc1-c1ccc(OCC(F)(F)C(F)(F)F)cn1` [Present compound 67]: in assay [1], the pest or weed control at 200 ppm was at least 90% and the pest or weed control at 500 ppm was at least 90%. In addition, in assay [2], the mortality at 500 ppm is at least 100%.
For `CCS(=O)(=O)c1cc(-c2ccccn2)ccc1-c1ccc(OCC(F)(F)C(F)(F)F)cn1` [Present compound 68], in assay [1], the pest or weed control at 200 ppm was at least 90% and the pest or weed control at 500 ppm was at least 90%.

These data come from patent US10273210B2, “Pyridine compound” (Sumitomo Chemical Company, Limited, priority 2015, dated 2019).
